# Source: ChEMBL document CHEMBL1158953, “The Structure of Clathrodin, a Novel Alkaloid Isolated from the Caribbean Sea Sponge Agelas clathrodes” (1991)
# The source made the active and inactive calls. The rule behind the calls is not given here.
# What was measured:
# Rana temporaria = species on record: Rana temporaria; assay: Inhibition of cholinergic receptor in frog skeletal muscle at 0.1 uM to 1000 uM
# CHO-K1 = assay: Cytotoxicity against CHOK1 cells; format: functional; settings: Cricetulus griseus, read-out: ED50 (the source's name)
structure (smiles),measurement,setting,value
Nc1ncc(/C=C/CNC(=O)c2ccc[nH]2)[nH]1 [CLATHRODIN],Activity,Rana temporaria,Active
same,EC50,CHO-K1,1.33 µg/mL
